Experimental findings from patent publication US20250101019A1 (Insilico Medicine IP Limited, priority 2022, published 2025) are described below.

The target of test [1] is T1, ENPP1 (Homo sapiens (Human), UniProt P22413). In words: cGAMP-Glo enzymatic assay (2′3′-cGAMP substrate, AMP-Glo readout). In kind it is biochemical. To be noted: substrate 2′3′-cGAMP; 25° C. for 60 min; 50 mM Tris pH 8.8. The method, boiled down:
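Human ENPP1 incubated with compound (11-point, 3-fold series) and either ATP or 2′3′-cGAMP substrate for 60 min at 25 °C in 50 mM Tris pH 8.8, 250 mM NaCl, 0.1% BSA. AMP produced detected by AMP-Glo then kinase detection reagent, 1 h each at 25 °C, read as luminescence.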

Test [2] addresses T1, ENPP1. The experiment in a line: ATP-Glo enzymatic assay (ATP substrate, AMP-Glo readout). It is filed as biochemical. The conditions noted are these: 25° C. for 60 min, 50 mM Tris pH 8.8.

T1 sequence (P22413 whole entry, species assumed): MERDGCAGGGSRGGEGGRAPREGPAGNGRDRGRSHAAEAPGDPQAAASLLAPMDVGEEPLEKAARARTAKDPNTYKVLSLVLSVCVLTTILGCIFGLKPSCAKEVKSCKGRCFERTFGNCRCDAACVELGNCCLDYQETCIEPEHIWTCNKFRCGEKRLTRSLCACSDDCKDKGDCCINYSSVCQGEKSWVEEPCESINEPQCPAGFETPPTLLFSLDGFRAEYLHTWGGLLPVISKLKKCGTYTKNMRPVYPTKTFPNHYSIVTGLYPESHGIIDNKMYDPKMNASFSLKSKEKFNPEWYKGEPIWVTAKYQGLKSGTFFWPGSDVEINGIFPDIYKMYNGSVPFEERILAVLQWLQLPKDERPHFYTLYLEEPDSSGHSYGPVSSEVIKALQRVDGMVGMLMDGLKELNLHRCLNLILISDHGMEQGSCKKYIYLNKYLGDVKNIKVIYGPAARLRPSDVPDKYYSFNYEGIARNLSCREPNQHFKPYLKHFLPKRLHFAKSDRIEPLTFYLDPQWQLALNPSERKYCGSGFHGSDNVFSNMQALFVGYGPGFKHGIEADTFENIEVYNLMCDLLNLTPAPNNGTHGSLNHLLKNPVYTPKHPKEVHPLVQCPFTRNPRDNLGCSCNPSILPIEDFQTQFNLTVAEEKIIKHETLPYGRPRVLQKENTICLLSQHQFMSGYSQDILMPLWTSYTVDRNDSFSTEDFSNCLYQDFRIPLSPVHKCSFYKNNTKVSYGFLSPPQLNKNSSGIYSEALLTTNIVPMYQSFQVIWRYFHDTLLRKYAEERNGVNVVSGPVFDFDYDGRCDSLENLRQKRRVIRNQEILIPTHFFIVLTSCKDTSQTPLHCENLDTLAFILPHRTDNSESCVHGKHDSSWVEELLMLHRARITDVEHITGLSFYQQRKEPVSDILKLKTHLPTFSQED

Take `Cc1ncc2nc(C3CC3)n(Cc3c(F)cc(S(N)(=O)=O)cc3F)c2c1-c1ccccc1` [Example 39, 4-((2-cyclopropyl-6-methyl-7-phenyl-1H-imidazo[4,5-c]pyridin-1-yl)methyl)-3,5-difluorobenzenesulfonamide]: the half-inhibitory concentration (IC50) against ENPP1 [1] and against ENPP1 [2] was less than 1 nM throughout.

As to `Cc1ncc2ncn(Cc3ccc(S(N)(=O)=O)cc3)c2c1-c1ccccc1` [Example 29, 4-((6-methyl-7-phenyl-1H-imidazo[4,5-c]pyridin-1-yl)methyl)benzene sulfonamide], the half-maximal inhibitory concentration (IC50) against ENPP1 [1] and against ENPP1 [2] was less than 1 nM throughout.

Take `COc1ncc2ccn(Cc3ccc(S(N)(=O)=O)cc3)c2c1-c1ccccc1` [Example 9, 4-((6-methoxy-7-phenyl-1H-pyrrolo[3,2-c]pyridin-1-yl)methyl)benzene sulfonamide]: the IC50 on ENPP1 [1] and against ENPP1 [2] was less than 1 nM in each case.

As to `Cc1ncc2nc(C)n(Cc3ncc(S(N)(=O)=O)cc3F)c2c1-c1ccccc1` [Example 68, 6-((2,6-dimethyl-7-phenyl-1H-imidazo[4,5-c]pyridin-1-yl)methyl)-5-fluoropyridine-3-sulfonamide], the half-maximal inhibitory concentration (IC50) against ENPP1 [1] and on ENPP1 [2] was less than 1 nM throughout.
